# Source: article PMC12564639, “Discovery of a Novel Anticoagulant Cystine Knot Peptide from Spider Venom Gland Transcriptome” (International Journal of Molecular Sciences, 2025)
# Like-named read-outs stand apart in the source and are kept apart here. Bridge positions count the residues as written; N and C are the ends. Square brackets hold non-standard residues; d marks the D form. Ends that are not written are not given here. * marks the point of attachment. pNA = O=[N+]([O-])c1ccc(N*)cc1; pGlu = O=C1CC[C@@H](C(=O)O)N1
# Experiments:
# mouse tail bleeding = assay: Tail bleeding time; type: in vivo, C57BL/6J mice; conditions: heparin sodium 1000 U/kg i.v., 10 min after administration; n = 6; vehicle 89.8 s
# Description: The C57BL/6J mice (male, 6–8 weeks old) were purchased from Beijing Vital River Laboratory Animal Technology Co., Ltd. (Beijing, China). All animal studies were performed under the approval of the Ethics Committee of the Laboratory Animal Welfare of the Kunming Institute of Zoology, Chinese Academy of Sciences (IACUC-RE-2025-03-010).
# The mouse tail-bleeding assay was performed to evaluate the bleeding risk associated with GC38 treatment. Male C57BL/6J mice (6–8 weeks, n = 6 per group) were randomized to receive intravenous injection of PBS (negative control), GC38 (2 or 4 mg/kg in PBS), or heparin sodium (1000 U/kg, positive control). The assay was conducted 10 min after administration. Mice were anesthetized, and a 2 mm segment of the tail tip was surgically transected using a sterile scalpel. Immediately after the incision, the tail was immersed in prewarmed PBS (37 °C) to facilitate blood flow. Bleeding time was recorded from the moment of the incision until the complete cessation of bleeding (no blood flow for 60 s).
# thrombin = conditions: cited from earlier work
# Text: (§1) Anticoagulants are standard therapy for venous thromboembolism and arterial thrombosis-mediated disorders, particularly in acute settings.
# [1] = cited from earlier work
# Text: as §1
# [2] = ref Diapharma Group (supplier named); enzyme not given; cited from earlier work
# Text: Human Activated Protein C (APC-1.0) was purchased from Enzyme Research Laboratories, Inc., South Bend, IN, USA. […] Activated Partial Thromboplastin Time (APTT) Test Kit (TC0306) was bought from Senkey Biotechnology Co., Ltd., Kunming, China. Prothrombin Time (PT) Test Kit (GMS10176) was purchased from GENMED Scientifics Inc., Shanghai, China. Streptavidin (SA) Biosensors (18-5019) were obtained from Sartorius AG, Göttingen, Lower Sa ...
# [3] = venom of Eresus niger; cited from earlier work
# Text: Studies have focused on the use of venom peptides for anticoagulation therapy. […] These peptides typically target key components of the coagulation cascade with high specificity, potency, and selectivity.
# [4] = target: Human Activated Protein C (human) (UniProt P04070)
molecule,measurement,setting,value
heparin sodium [reference compound],tail bleeding time,mouse tail bleeding,127.6 s
hirudin,thrombin inhibition,thrombin,thrombin inhibitor
same,bleeding risk,[1]; heparin-induced thrombocytopenia (HIT) management,lower bleeding risk than conventional therapies
"[pGlu]-Pro-Arg-pNA [S-2366, Chromogenix substrate S-2366]",Km,[2],200 µM
same,kcat,[2],190 s⁻¹
heparin,bleeding risk,[1]; clinical,significant bleeding risks
"bivalirudin: Another synthetic peptide, bivalirudin",major bleeding events,"[1]; percutaneous coronary intervention (PCI), compared to heparin",reduction in major bleeding events compared to heparin
phospholipase A2,anticoagulant activity,[3],anticoagulant activity
"GCSGKGARCAPSKCCSGLSCGRHGGNMYKSCEWNWKTG (disulfide 14-31, 2-15, 9-20) [GC38]","APC enzymatic activity at Vmax on chromogenic substrate S-2366 (APC 0.7145 μM, S-2366 402.1 μM), GC38 0.1 to 10 μM, concentration-dependent; highest value at 10 μM",[4],171%
